Numbered stars: 1 amine (or outer) side, 2 acyl side, 3 side chain; on linkers, the order of the positions; unused ones are H or OH. Bridge positions count the residues as written; N and C are the ends. Square brackets hold non-standard residues; d marks the D form. Peptide text beside a SMILES is read from it. * marks the point of attachment. ξ: configuration not given here. Phe(4-CH2CH2COOH) = N[C@@H](Cc1ccc(CCC(=O)O)cc1)C(=O)O; Phe(3-CF3) = N[C@@H](Cc1cccc(C(F)(F)F)c1)C(=O)O; Phe(4-CONH2) = NC(=O)c1ccc(C[C@H](N)C(=O)O)cc1; Phe(4-COOH) = N[C@@H](Cc1ccc(C(=O)O)cc1)C(=O)O; Bip = N[C@@H](Cc1ccc(-c2ccccc2)cc1)C(=O)O; Phe(3-Me) = Cc1cccc(C[C@H](N)C(=O)O)c1; γGlu = O=C(O)[C@H](CCC(=O)[*:2])N[*:1]; NH(CH2)12COOH = O=C(O)CCCCCCCCCCCCN*; Bta = N[C@@H](Cc1csc2ccccc12)C(=O)O; Val(3-OH) = CC(C)(O)[C@H](N)C(=O)O; 4Pal = N[C@@H](Cc1ccncc1)C(=O)O; Cha = N[C@@H](CC1CCCCC1)C(=O)O; Ile(3ξ) = CCC(C)[C@H](N)C(=O)O; Thr(3ξ) = CC(O)[C@H](N)C(=O)O; dDab = NCC[C@@H](N)C(=O)O; Carboxymethyl = O=C(O)C*; Orn = NCCC[C@H](N)C(=O)O; Pra = C#CC[C@H](N)C(=O)O; Aun = NCCCCCCCCCCC(=O)O; Dab = NCC[C@H](N)C(=O)O; Dap = NC[C@H](N)C(=O)O; AEEA = NCCOCCOCC(=O)O

The target of this experiment is T1, PD-1/PD-L1 interaction (PE-labeled human PD-L1-Ig binding to Jurkat cell line over-expressing human PD-1) (Homo sapiens, UniProt Q15116).
T1 construct: expressed in transfected cells; host or cells: Jurkat
T1 sequence (Q15116 25-288): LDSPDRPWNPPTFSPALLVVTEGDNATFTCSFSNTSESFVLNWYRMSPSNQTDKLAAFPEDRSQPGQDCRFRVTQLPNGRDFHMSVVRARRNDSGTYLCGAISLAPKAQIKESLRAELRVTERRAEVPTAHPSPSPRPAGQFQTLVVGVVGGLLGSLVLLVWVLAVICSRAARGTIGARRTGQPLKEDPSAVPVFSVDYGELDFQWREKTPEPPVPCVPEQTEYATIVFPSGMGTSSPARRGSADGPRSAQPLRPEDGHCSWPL
The experiment is described as follows: Jurkat-PD-1 Cell Binding High-Content Screening Assay (CBA). Format: cell-based. The settings on record: Jurkat cell line over-expressing human PD-1; PE-labeled PD-L1-Ig 20 nM final; read-out: Jurkat hPD1-PDL1 IC50. A digest of the protocol:
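Read-out is high-content imaging of cell-bound phycoerythrin-tagged PD-L1-Ig on fixed, Hoechst-counterstained Jurkat cells that over-express human PD-1. Compound exposure lasts 2 h at 37° C before the labeled ligand (20 nM final) is added for a further hour.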
The IC50 is the concentration that gives 50% inhibition. For `Cc1cccc(C[C@@H]2NC(=O)[C@H](CC(=O)O)NC(=O)[C@H](Cc3ccc(OCC(=O)O)cc3)NC(=O)[C@H](Cc3ccc(OCC(=O)O)cc3)NC(=O)CSC[C@@H](C(=O)N[C@@H](CCCN)C(=O)NCCCCCCCCCCC(=O)O)NC(=O)[C@H](CO)NC(=O)[C@H](C(C)C)NC(=O)[C@H](CC3CCCCC3)NC(=O)[C@H](CCN)NC(=O)[C@@H](CC(C)C)NC(=O)[C@H](CCCN)NC(=O)[C@H](C(C)C)NC(=O)[C@H](Cc3ccc(-c4ccccc4)cc3)NC(=O)[C@H](CC(C)C)NC2=O)c1` [Compound 1059] ({CH2CO}-Y(Carboxymethyl)Y(Carboxymethyl)D[Phe(3-Me)]L[Bip]V[Orn][dL][Dab][Cha]VSC[Orn][Aun]-OH; thioether N-14), the IC50 was found to be 48.6 nM. Then `CC(C)C[C@H]1NC(=O)[C@H](CCCN)NC(=O)[C@H](Cc2ccc(O)cc2)NC(=O)[C@H](Cc2ccc(-c3ccccc3)cc2)NC(=O)[C@H](Cc2ccc(O)cc2)NC(=O)[C@H](Cc2c[nH]c3ccccc23)NC(=O)[C@H](CC(=O)O)NC(=O)[C@H](Cc2ccc(C(=O)O)cc2)NC(=O)[C@H](Cc2ccc(OCC(=O)O)cc2)NC(=O)CSC[C@@H](C(=O)N[C@@H](CCN)C(=O)NCCCCCCCCCCC(=O)O)NC(=O)[C@H](CCCCN)NC(=O)[C@H](Cc2ccc(O)cc2)NC(=O)[C@H](CC2CCCCC2)NC(=O)[C@H](CCN)NC1=O` [Compound 2507] ({CH2CO}-Y(Carboxymethyl)[Phe(4-COOH)]DWY[Bip]Y[Orn][dL][Dab][Cha]YKC[Dab][Aun]-OH; thioether N-14), with 72.1 nM; and `CC(C)C[C@H]1NC(=O)[C@H](CCCN)NC(=O)[C@H](Cc2ccc(C(=O)O)cc2)NC(=O)[C@H](Cc2ccc(-c3ccccc3)cc2)NC(=O)[C@H](Cc2ccc(C(=O)O)cc2)NC(=O)[C@H](Cc2cccc(C(F)(F)F)c2)NC(=O)[C@H](CC(=O)O)NC(=O)[C@H](Cc2ccc(OCC(=O)O)cc2)NC(=O)[C@H](CC2CCCCC2)NC(=O)CSC[C@@H](C(=O)N[C@H](CCN)C(=O)NCCOCCOCC(=O)NCCOCCOCC(=O)NCCCCCCCCCCCCC(=O)O)NC(=O)[C@H](CO)NC(=O)[C@H](C(C)(C)O)NC(=O)[C@H](CC2CCCCC2)NC(=O)[C@H](CCN)NC1=O` [Compound 3831] ({CH2CO}-[Cha]Y(Carboxymethyl)D[Phe(3-CF3)][Phe(4-COOH)][Bip][Phe(4-COOH)][Orn][dL][Dab][Cha][Val(3-OH)]SC[dDab][AEEA][AEEA]-{NH(CH2)12COOH}; thioether N-14), with 22.5 nM. Consider `Cc1cccc(C[C@@H]2NC(=O)[C@H](CC(=O)O)NC(=O)[C@H](Cc3ccc(OCC(=O)O)cc3)NC(=O)[C@H](CCN)NC(=O)CSC[C@@H](C(=O)N[C@@H](CCN)C(=O)NCCOCCOCC(=O)NCCOCCOCC(=O)NCCCCCCCCCCCCC(=O)O)NC(=O)[C@H](CO)NC(=O)[C@H](C(C)(C)O)NC(=O)[C@H](CC3CCCCC3)NC(=O)[C@H](Cc3c[nH]cn3)NC(=O)[C@@H](CC(C)C)NC(=O)[C@H](CCCN)NC(=O)[C@H](Cc3ccc(OCC(=O)O)cc3)NC(=O)[C@H](Cc3ccc(-c4ccccc4)cc3)NC(=O)[C@H](Cc3ccc(OCC(=O)O)cc3)NC2=O)c1` [Compound 2873] ({CH2CO}-[Dab]Y(Carboxymethyl)D[Phe(3-Me)]Y(Carboxymethyl)[Bip]Y(Carboxymethyl)[Orn][dL]H[Cha][Val(3-OH)]SC[Dab][AEEA][AEEA]-{NH(CH2)12COOH}; thioether N-14), for which the IC50 amounted to 34.5 nM. The value for `CCC(C)[C@@H]1NC(=O)[C@H](CC2CCCCC2)NC(=O)[C@H](CCN)NC(=O)[C@@H](CC(C)C)NC(=O)[C@H](CCCN)NC(=O)[C@H](C(C)CC)NC(=O)[C@H](Cc2ccc(-c3ccccc3)cc2)NC(=O)[C@H](C(C)CC)NC(=O)[C@H](Cc2c[nH]c3ccccc23)NC(=O)[C@H](CC(=O)O)NC(=O)[C@H](Cc2ccc(OCC(=O)O)cc2)NC(=O)[C@H](C(C)O)NC(=O)CSC[C@@H](C(=O)N[C@H](CC(N)=O)C(=O)NCCOCCOCC(=O)N2CCC[C@@H]2C(=O)NCCCCCCCCCCC(=O)O)NC(=O)[C@H](CO)NC1=O` (stereo partly drawn) [Compound 3118] ({CH2CO}-[Thr(3ξ)]Y(Carboxymethyl)DW[Ile(3ξ)][Bip][Ile(3ξ)][Orn][dL][Dab][Cha][Ile(3ξ)]SC[dN][AEEA][dP][Aun]-OH; thioether N-14) was 30.4 nM; that for `C#CC[C@H](NC(=O)COCCOCCNC(=O)[C@H](CCN)NC(=O)[C@@H]1CSCC(=O)N[C@@H](Cc2ccncc2)C(=O)N[C@@H](Cc2ccc(OCC(=O)O)cc2)C(=O)N[C@@H](CC(=O)O)C(=O)N[C@@H](Cc2c[nH]c3ccccc23)C(=O)N[C@@H](C(C)C)C(=O)N[C@@H](Cc2ccc(-c3ccccc3)cc2)C(=O)N[C@@H]([C@@H](C)CC)C(=O)N[C@@H](CCCN)C(=O)N[C@H](CC(C)C)C(=O)N[C@@H](CCN)C(=O)N[C@@H](CC(C)C)C(=O)N[C@@H](C(C)C)C(=O)N[C@@H]([C@@H](C)O)C(=O)N1)C(=O)N[C@@H](CCCN)C(=O)NCCCCCCCCCCC(=O)O` [Compound 1195] ({CH2CO}-[4Pal]Y(Carboxymethyl)DWV[Bip]I[Orn][dL][Dab]LVTC[Dab][AEEA][Pra][Orn][Aun]-OH; thioether N-14) was 13.7 nM; that for `Cc1cccc(C[C@@H]2NC(=O)[C@H](CC(=O)O)NC(=O)[C@H](Cc3ccc(OCC(=O)O)cc3)NC(=O)[C@H](CN)NC(=O)CSC[C@@H](C(=O)N[C@@H](C)C(=O)N[C@@H](CCCN)C(=O)NCCCCCCCCCCC(=O)O)NC(=O)[C@H]([C@@H](C)O)NC(=O)[C@H](C(C)C)NC(=O)[C@H](CC3CCCCC3)NC(=O)[C@H](Cc3cnc[nH]3)NC(=O)[C@@H](CC(C)C)NC(=O)[C@H](CCCN)NC(=O)[C@H](C(C)C)NC(=O)[C@H](Cc3ccc(-c4ccccc4)cc3)NC(=O)[C@H](C(C)C)NC2=O)c1` [Compound 1113] ({CH2CO}-[Dap]Y(Carboxymethyl)D[Phe(3-Me)]V[Bip]V[Orn][dL]H[Cha]VTCA[Orn][Aun]-OH; thioether N-14) was 30.2 nM. Then `CC(C)C[C@H]1NC(=O)[C@H](CCCN)NC(=O)[C@H](Cc2ccc(O)cc2)NC(=O)[C@H](Cc2ccc(-c3ccccc3)cc2)NC(=O)[C@H](Cc2ccc(OCC(=O)O)cc2)NC(=O)[C@H](Cc2csc3ccccc23)NC(=O)[C@H](CC(=O)O)NC(=O)[C@H](Cc2ccc(OCC(=O)O)cc2)NC(=O)[C@H](CN)NC(=O)CSC[C@@H](C(=O)N[C@@H](CCN)C(=O)NCCOCCOCC(=O)NCCCCCCCCCCC(=O)O)NC(=O)[C@H](CCCN)NC(=O)[C@H](C(C)C)NC(=O)[C@H](CC2CCCCC2)NC(=O)[C@H](CCN)NC1=O` [Compound 1309] ({CH2CO}-[Dap]Y(Carboxymethyl)D[Bta]Y(Carboxymethyl)[Bip]Y[Orn][dL][Dab][Cha]V[Orn]C[Dab][AEEA][Aun]-OH; thioether N-14), with 63.4 nM. Then `Cc1cccc(C[C@@H]2NC(=O)[C@H](CC(=O)O)NC(=O)[C@H](Cc3ccc(OCC(=O)O)cc3)NC(=O)[C@H](C(C)O)NC(=O)CSC[C@@H](C(=O)N[C@@H](CCN)C(=O)NCCOCCOCC(=O)N[C@@H](CCC(=O)NCCOCCOCC(=O)NCCCCCCCCCCCCC(=O)O)C(=O)O)NC(=O)[C@H](CO)NC(=O)[C@H](C(C)(C)O)NC(=O)[C@H](CC3CCCCC3)NC(=O)[C@H](CCN)NC(=O)[C@@H](CC(C)C)NC(=O)[C@H](CCCN)NC(=O)[C@H](Cc3ccc(OCC(=O)O)cc3)NC(=O)[C@H](Cc3ccc(-c4ccccc4)cc3)NC(=O)[C@H](Cc3ccc(OCC(=O)O)cc3)NC2=O)c1` (stereo partly drawn) [Compound 3906] ({CH2CO}-[Thr(3ξ)]Y(Carboxymethyl)D[Phe(3-Me)]Y(Carboxymethyl)[Bip]Y(Carboxymethyl)[Orn][dL][Dab][Cha][Val(3-OH)]SC[Dab][AEEA][γGlu][AEEA]-{NH(CH2)12COOH}; thioether N-14), with 17.7 nM; and `Cc1cccc(C[C@@H]2NC(=O)[C@H](CC(=O)O)NC(=O)[C@H](Cc3ccc(OCC(=O)O)cc3)NC(=O)[C@H](CN)NC(=O)CSC[C@@H](C(=O)N[C@@H](C)C(=O)N[C@@H](CN)C(=O)NCCCCCCCCCCC(=O)O)NC(=O)[C@H]([C@@H](C)O)NC(=O)[C@H](C(C)C)NC(=O)[C@H](CC3CCCCC3)NC(=O)[C@H](Cc3cnc[nH]3)NC(=O)[C@@H](CC(C)C)NC(=O)[C@H](CCCN)NC(=O)[C@H](C(C)C)NC(=O)[C@H](Cc3ccc(-c4ccccc4)cc3)NC(=O)[C@H](C(C)C)NC2=O)c1` [Compound 1111] ({CH2CO}-[Dap]Y(Carboxymethyl)D[Phe(3-Me)]V[Bip]V[Orn][dL]H[Cha]VTCA[Dap][Aun]-OH; thioether N-14), with 64.2 nM; and `Cc1cccc(C[C@@H]2NC(=O)[C@H](CC(=O)O)NC(=O)[C@H](Cc3ccc(OCC(=O)O)cc3)NC(=O)[C@H](CCCNC(=N)N)NC(=O)CSC[C@@H](C(=O)N[C@@H](CCN)C(=O)NCCCCCCCCCCC(=O)O)NC(=O)[C@H](C(C)O)NC(=O)[C@H](CO)NC(=O)[C@H](CC3CCCCC3)NC(=O)[C@H](CCN)NC(=O)[C@@H](CC(C)C)NC(=O)[C@H](CCCN)NC(=O)[C@H](Cc3ccc(OCC(=O)O)cc3)NC(=O)[C@H](Cc3ccc(-c4ccccc4)cc3)NC(=O)[C@H](Cc3ccc(CCC(=O)O)cc3)NC2=O)c1` (stereo partly drawn) [Compound 3506] ({CH2CO}-RY(Carboxymethyl)D[Phe(3-Me)][Phe(4-CH2CH2COOH)][Bip]Y(Carboxymethyl)[Orn][dL][Dab][Cha]S[Thr(3ξ)]C[Dab][Aun]-OH; thioether N-14), with 15.1 nM. Take `Cc1cccc(C[C@@H]2NC(=O)[C@H](CC(=O)O)NC(=O)[C@H](Cc3ccc(C(N)=O)cc3)NC(=O)[C@H](Cc3ccncc3)NC(=O)CSC[C@@H](C(=O)N[C@@H](CCN)C(=O)NCCOCCOCC(=O)NCCCCCCCCCCC(=O)O)NC(=O)[C@H](CO)NC(=O)[C@H](C(C)(C)O)NC(=O)[C@H](CC3CCCCC3)NC(=O)[C@H](CCN)NC(=O)[C@@H](CC(C)C)NC(=O)[C@H](CCCN)NC(=O)[C@H](Cc3ccc(OCC(=O)O)cc3)NC(=O)[C@H](Cc3ccc(-c4ccccc4)cc3)NC(=O)[C@H](Cc3ccc(OCC(=O)O)cc3)NC2=O)c1` [Compound 3750] ({CH2CO}-[4Pal][Phe(4-CONH2)]D[Phe(3-Me)]Y(Carboxymethyl)[Bip]Y(Carboxymethyl)[Orn][dL][Dab][Cha][Val(3-OH)]SC[Dab][AEEA][Aun]-OH; thioether N-14): the IC50 was found to be 125 nM.
